Measurements from patent EP4516309A1, “CRHR1 AGONISTS FOR USE IN THE TREATMENT OF SOCIAL ANXIETY DISORDERS” (Consejo Superior de Investigaciones Cientificas, priority 2023, dated 2025).
Values belong to the compound of their own block, whether it stands above or below them.

How the values were obtained:
[1] = system: CRHR1; assay: Whole-cell patch-clamp recordings from rdLS CRHR1 neurons in acute LS slices; assay type: cell-based; details: 300 nM stressin-1, bath application; CRHR1-Cre;Ai9 mice; neurons clamped at -60 mV
[2] = system: CRHR1; assay: Spontaneous IPSC recording from LS cells in acute slices before and after agonist application; assay type: cell-based, mice; details: 300 nM
Excerpt: The inventors prepared coronal brain slices from 8- to 12-week-old C57BL6/J mice. Animals were killed under isoflurane anesthesia by perfusion into the right ventricle of ice-cold solution containing the following (in mM): 125 NaCl, 2.5 KCI, 22.5 glucose, 25 NaHCOs, 1.25 NaH2PO4, 3 Na Pyruvate, 1 Ascorbic acid, 2 CaCl2 and 1 MgCl2). ACSF was saturated with 95% O2 and 5% CO2, pH 7.4. Brains were cut into 400 µm slices with a vibratome (VT1200S, Leica) in the same ice-cold dissection solution. Slices were then transferred to an incubation chamber containing the same ACSF solution. The chamber was kept at 34°C for 30 min and then at room temperature for at least 1 h before recording. All experiments were performed at room temperature. Slices were mounted in the recording chamber under a microscope. Recordings were acquired using the Multiclamp 700A amplifier (Molecular Device), data acquisition interface ITC-18 (Instrutech) and the Axograph software. […] Whole-cell recordings were obtained from LS neurons in voltage-clamp mode at -70 mV patch pipette (3-5 MΩ) containing the following (in mM): 135 Cs-gluconate, 5 KCI, 0.2 EGTA-Na, 10 HEPES, 2 NaCl, 5 ATP, 0.4 GTP, 10 phosphocreatine, and 5 µM biocytin, pH 7.2 (280-290 mOsm). The liquid junction potential was 1.2 mV and was left uncorrected. Inhibitory currents were recorded in voltage-clamp configuration at +10 mV. The inventors recorded rdLS neurons in septal slices from CRH-Cre mice expressing channelrhodopsin and applied 2 µM SR 95531 (Tocris, # 1262) and 1 µM CGP 55845 (Tocris, #1248) to block GABAA and GABAB receptors, respectively while monitoring the light induced IPSCs in rdLS neurons. The inventors also applied a tetanic light stimulation (3 times 100 pulses of 1 ms at 100 Hz) with or without 300 nM antalarmin (Tocris, #2778) present in the bath. LS neurons from WT mice were also recorded. After 10 min of stable baseline recording, stressin-1 (300 nM, Tocris # 1608) was applied following a 1:1000 dilution from stock solution into the ACSF. The inventors used the Axograph software for data acquisition, and Excel (Microsoft) and PRISM (Graphpad) for data analysis.
The inventors prepared acute LS slices from WT mice and recorded spontaneous inhibitory post-synaptic currents (IPSCs) from rdLS cells in whole-cell configuration before applying the CRHR1 agonist stressin-1 (300 nM, Fig. 15A-B). Stressin-1 application for 15 min decreased the frequency and integrated charge of spontaneous IPSCs (Fig. 15B-C and E). […] This effect was not seen when rLS neurons were recorded for 15 min without application of the agonist (Fig. 16 A1-A5).

[3] = target: T1, CRHR1 (Mus musculus, UniProt P35347); assay: Inhibitory events in rdLS neurons before and after tetanic light stimulation of ILA CRH fibers, with or without antagonist; assay type: cell-based, mice; details: 300 nM antalarmin in the bath
T1 sequence (P35347 24-415): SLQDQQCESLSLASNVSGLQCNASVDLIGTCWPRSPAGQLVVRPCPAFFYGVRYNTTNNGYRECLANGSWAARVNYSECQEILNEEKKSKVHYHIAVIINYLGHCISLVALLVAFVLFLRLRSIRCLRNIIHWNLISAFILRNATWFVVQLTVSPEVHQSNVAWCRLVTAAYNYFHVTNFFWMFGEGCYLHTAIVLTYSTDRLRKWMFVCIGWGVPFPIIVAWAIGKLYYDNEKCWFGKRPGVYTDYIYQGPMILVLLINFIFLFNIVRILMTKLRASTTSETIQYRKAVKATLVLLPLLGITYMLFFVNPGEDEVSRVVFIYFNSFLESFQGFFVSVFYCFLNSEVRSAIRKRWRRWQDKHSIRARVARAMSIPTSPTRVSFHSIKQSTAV
Excerpt: The inventors prepared coronal brain slices from 8- to 12-week-old C57BL6/J mice. Animals were killed under isoflurane anesthesia by perfusion into the right ventricle of ice-cold solution containing the following (in mM): 125 NaCl, 2.5 KCI, 22.5 glucose, 25 NaHCOs, 1.25 NaH2PO4, 3 Na Pyruvate, 1 Ascorbic acid, 2 CaCl2 and 1 MgCl2). ACSF was saturated with 95% O2 and 5% CO2, pH 7.4. Brains were cut into 400 µm slices with a vibratome (VT1200S, Leica) in the same ice-cold dissection solution. Slices were then transferred to an incubation chamber containing the same ACSF solution. The chamber was kept at 34°C for 30 min and then at room temperature for at least 1 h before recording. All experiments were performed at room temperature. Slices were mounted in the recording chamber under a microscope. Recordings were acquired using the Multiclamp 700A amplifier (Molecular Device), data acquisition interface ITC-18 (Instrutech) and the Axograph software. […] Inhibitory currents were recorded in voltage-clamp configuration at +10 mV. […] LS neurons from WT mice were also recorded. […]
The inventors expressed channel rhodopsin in ILA^CRH neurons and prepared rdLS slices (Fig. 15F). The inventors obtained whole-cell recordings of rdLS neurons and recorded spontaneous inhibitory events (sIPSC) before and after applying a tetanic light stimulation. […]

[4] = system: CRHR1; assay: Social novelty preference test after cannula infusion in rdLS; assay type: in vivo, C57BL/6J wild-type mice; details: 2 µg of antalarmin in 0.6 µL of DMSO infused in rdLS
Excerpt: The mouse scalp was removed and scored before a hole was drilled (AP +0.9, ML ±0). A cannula guide extending 2.4 mm below the pedestal (Plastics One #C315G 2-G11-SPC) was lowered slowly and kept in place using superglue. The skull was then covered with dental cement (GC FujiCEM 2) and dummy cannulas (Plastics One #C315DC-SPC) were inserted into the guides. The mice were returned to their home cages and left to recover for at least 1 week. For rdLS infusion, mice were placed under light isoflurane anesthesia (2%) and the dummy cannula was removed. A cannula (Plastics One #C315I-SPC) projecting 2.5 mm from the tip of the cannula guide was mounted. […]
Social novelty preference test. […] Using automatic tracking of the test mice (ANY-Maze, Stoelting), the inventors quantified the time the test mice spent in the immediate area surrounding each cup - and therefore, interacting with each stimulus mice - during learning and recall. Using the interaction time from the recall trial, the inventors calculated a discrimination index for social novelty preference as the following: D! = (time with novel - time with familiar) / total interaction time. […] The inventors also calculated the total time spent interacting with stimulus mice during each trial in order to verify that the sociability drive was not affected. […]

[5] = system: GABAA and GABAB receptors; assay: Light-induced IPSCs in rdLS neurons after stimulation of CRH+ fibers from ILA expressing Channelrhodopsin; assay type: cell-based, mice; details: 2µM SR 95531 and 1µM CGP 55845 applied together; neurons held at +10 mV
Description: The inventors prepared coronal brain slices from 8- to 12-week-old C57BL6/J mice. […] Brains were cut into 400 µm slices with a vibratome (VT1200S, Leica) in the same ice-cold dissection solution. Slices were then transferred to an incubation chamber containing the same ACSF solution. The chamber was kept at 34°C for 30 min and then at room temperature for at least 1 h before recording. All experiments were performed at room temperature. Slices were mounted in the recording chamber under a microscope. Recordings were acquired using the Multiclamp 700A amplifier (Molecular Device), data acquisition interface ITC-18 (Instrutech) and the Axograph software. The inventors targeted CA2 PNs based somatic location and size in both deep and superficial layer. […] The liquid junction potential was 1.2 mV and was left uncorrected. Inhibitory currents were recorded in voltage-clamp configuration at +10 mV. […] LS neurons from WT mice were also recorded. […] The inventors used the Axograph software for data acquisition, and Excel (Microsoft) and PRISM (Graphpad) for data analysis.

[6] = application for 15 min, rdLS cells, WT mice

Compound: stressin-1
- current in rdLSCRHR1 neurons [1]: induced an inward current
- IPSCs of vLS neurons ([2]; 15 min, vLS neurons in posterior LS slices): had no effect
- IPSC amplitude [2, 6]: trend toward a decrease
- frequency of spontaneous IPSCs [2, 6]: decreased
- integrated charge of spontaneous IPSCs [2, 6]: decreased

- decrease in inhibition (sIPSC frequency, amplitude, charge; elicited IPSC) following light stimulation [3]: blocked the disinhibition
Compound: CCCCN(CC)c1nc(C)nc2c1c(C)c(C)n2-c1c(C)cc(C)cc1C [antalarmin]
- preference for the novel mouse ([4]; recall trial): showed no novelty preference
- Total exploration time during learning or recall ([4]; vs. DMSO): not different between groups

Compound: COc1ccc(-c2ccc(=N)n(CCCC(=O)O)n2)cc1 [SR 95531]
- light-induced IPSCs [5]: abolished

- light-induced IPSCs [5]: abolished
Compound: C[C@H](NC[C@H](O)CP(=O)(O)Cc1ccccc1)c1ccc(Cl)c(Cl)c1 [CGP 55845]
